Measured values taken from patent US8815509B2, “Fluorescence-based assay for the rapid detection and quantification of deoxyribonucleoside triphosphates” (University of Southern California, priority 2011, dated 2014).

Tested on: HCT116 human colorectal cancer cells
Assay: Intracellular dNTP pools of HCT116 cells after treatment with thymidylate synthase inhibitors, measured with the fluorescence-based dNTP assay
Conditions: for Intracellular dGTP concentration / Intracellular dCTP concentration / Intracellular dATP concentration / Intracellular dTTP concentration: 4 h, Mean ± SD; for Intracellular dGTP concentration: control 4.7 ± 0.8; for Intracellular dCTP concentration: control 10.5 ± 0.2; for Intracellular dATP concentration: control 13.6 ± 1.17; for Intracellular dTTP concentration: control 20.4 ± 0.77; for dGTP after treatment: depletion from 4.7; for dCTP levels after treatment: reduction from 10.5; for dTTP after treatment: vehicle-treated cells 20.4
[1] = HCT116, 2.5 μmol/L pemetrexed, 4 hours

Protocol: Reaction mixtures contained primer, probe and template at an equimolar final concentration of 0.4 mmol/L. MgCl2 was included at a final concentration of 2 mmol/L. Non-limiting dNTPs were included in the reaction mix in excess at a final concentration of 100 mmol/L (the dNTP to be assayed was excluded). AmpliTaq Gold DNA polymerase was added at 0.875 U/reaction, 2.5 μl of 10×PCR buffer 2 added and nuclease-free ddH2O added to a final reaction volume of 25 μl. For analysis of cell extracts, the volume of ddH20 was modified to accommodate the addition of 2.5 μl of cell extract. For dUTP determination from cell extracts, the volume of ddH20 was further modified to accommodate an additional 1 μl of dUTPase (10 ng/μl). Thermal profiling and fluorescence detection was performed using the ‘isothermal’ program on board an Applied Biosystems 7500 Real-Time PCR System. For analysis of dNTPs, the thermal profile consisted of a 10 min 95° C. step to ‘hot-start’ the Taq polymerase and a primer extension time of up to 30 min at 60° C. depending on the application. Raw fluorescence spectra for 6-FAM was measured using filter A at specified time intervals (typically every 5 min) to follow assay progression using Sequence Detection Software (SDS Version 1.4, Applied Biosystems) and exported and analyzed in Microsoft Excel (Microsoft, Redmond Wash.) and Prism (GraphPad Software, La Jolla Calif.). In all cases, fluorescence values for blank reactions (limiting dNTP omitted) were subtracted to give normalized fluorescence units (NFU) to account for background probe fluorescence.
The human colorectal cancer cell line HCT116 was purchased from American Type Culture Collection (Lockville, Md.). HCT116 cells were maintained in McCoy's 5A media (Invitrogen) supplemented with 10% fetal bovine serum (Lonza, Walkersville, Md.) with penicillin/streptomycin, sodium pyruvate and L-glutamine (Invitrogen, Carlsbad, Calif.). For pemetrexed analyses, cells were incubated in folate-depleted RPMI supplemented with 25 nmol/L 5-Formyltetrahydrofolate, 10% fetal bovine serum (Lonza), penicillin/streptomycin, sodium pyruvate and L-glutamine for 24 h prior to treatment. Cells were maintained in a humidified Form a incubator (Form a, Waltham, Mass.) at 37° C. with 5% CO2 and routinely screened for mycoplasma using the MycoALERT detection kit (Lonza) and verified mycoplasma negative.
The relationship between assay response and known concentrations of the analytes (dNTPs) was analyzed by a 5-point (minimum) calibration curve. Calibration curves were obtained by assaying serial dilutions of dNTP standards diluted with ultra-pure nuclease-free water to the desired concentration and evaluated using regression coefficients (R^2). Samples were assayed in triplicate, and experiments were repeated on three independent occasions as appropriate. The limit of detection (LOD) was defined as the mean value of the negative blind controls plus 3 standard deviations (SD) of the mean, i.e. the concentration with a signal to noise ratio of 3:1. The limit of quantification (LOQ) was defined as the mean value of the negative controls plus 5 SD determined from three independent assays (signal to noise ratio of 5:1). Coefficient of variation (% CV) values were calculated from the cumulative mean and SD of replicates. Inter-assay % CVs were calculated from 3 independent experiments performed on different days. The intra-assay % CV represents the mean±SD % CV obtained from assaying replicate samples within 3 identical yet independent assays performed on the same day. The accuracy was assessed by comparing the nominal dNTP concentrations with the corresponding calculated values based on the calibration curve and presented as a percentage.

With `O=c1[nH]cc(F)c(=O)[nH]1` [5-FU, 5-fluorouracil] the “Intracellular dGTP concentration” value (HCT116, 5 μmol/L 5-FU) was 0.88 ± 0.1 pmoles × 10^6 cells, the “Intracellular dCTP concentration” value (HCT116, 5 μmol/L 5-FU) was 8.7 ± 0.24 pmoles × 10^6 cells and the “Intracellular dATP concentration” value (HCT116, 5 μmol/L 5-FU) was 13.9 ± 0.33 pmoles × 10^6 cells. The “Intracellular dTTP concentration” value (HCT116, 5 μmol/L 5-FU) was 1.64 ± 0.16 pmoles × 10^6 cells, the dGTP after treatment (HCT116, 5 μmol/L 5-FU, 4 hours) was 0.9 pmoles per 10^6 cells and the “dCTP levels after treatment” value (HCT116, 5 μmol/L 5-FU, 4 hours) was 8.7 pmoles per 10^6. For the same molecule, the dTTP after treatment (HCT116, 5 μmol/L 5-FU, 4 hours) was 1.6 pmoles per 10^6 cells.
For `O=c1[nH]c(=O)n([C@H]2C[C@H](O)[C@@H](CO)O2)cc1F` [FUdR, fluorodeoxyuridine], the “Intracellular dGTP concentration” value (HCT116, 1 μmol/L FUdR) was 0.43 ± 0.11 pmoles × 10^6 cells, the “Intracellular dCTP concentration” value (HCT116, 1 μmol/L FUdR) was 8 ± 0.04 pmoles × 10^6 cells and the “Intracellular dATP concentration” value (HCT116, 1 μmol/L FUdR) was 14.5 ± 0.13 pmoles × 10^6 cells. The “Intracellular dTTP concentration” value (HCT116, 1 μmol/L FUdR) was 4.5 ± 0.71 pmoles × 10^6 cells, the “Depletion of dTTP versus vehicle-treated cells” value (HCT116, 1 μmol/L FUdR, 4 hours) was > 4 fold and the dGTP after treatment (HCT116, 1 μmol/L FUdR, 4 hours) was 0.43 pmoles per 10^6 cells. The “dCTP levels after treatment” value (HCT116, 1 μmol/L FUdR, 4 hours) was 8 pmoles per 10^6 and the dTTP after treatment (HCT116, 1 μmol/L FUdR, 4 hours) was 4.5 pmoles per 10^6 cells.
`Nc1nc2[nH]cc(CCc3ccc(C(=O)N[C@@H](CCC(=O)O)C(=O)O)cc3)c2c(=O)[nH]1` [PTX, pemetrexed] was tested, and the “Intracellular dGTP concentration” value (HCT116, 2.5 μmol/L PTX) was 1.14 ± 0.3 pmoles × 10^6 cells, the “Intracellular dCTP concentration” value (HCT116, 2.5 μmol/L PTX) was 11.1 ± 2.5 pmoles × 10^6 cells and the “Intracellular dATP concentration” value (HCT116, 2.5 μmol/L PTX) was 13.4 ± 1.68 pmoles × 10^6 cells. The “Intracellular dTTP concentration” value (HCT116, 2.5 μmol/L PTX) was 3.93 ± 0.8 pmoles × 10^6 cells, the dGTP after treatment [1] was 1.1 pmoles per 10^6 cells and the dTTP after treatment [1] was 3.9 pmoles per 10^6 cells.
